From patent publication US20230302159A1, “COMPOUNDS AND COMPOSITIONS FOR TUMOR DETECTION AND SURGICAL GUIDANCE” (Cornell University, priority 2020, published 2023) come the findings set out here.

Each structure is given as a SMILES string. Entries after “also recorded” stand apart in the source; their conditions may differ.

What is called pKa is the negative logarithm of the acid dissociation constant.

Data set [1] concerns OVASAHO/RFP-Luc subcutaneous tumors. The data set can be described thus: In vivo fluorescence imaging of subcutaneous tumors by spraying, OVASAHO/RFP-Luc model. The arrangement: species or system mice. Particulars: for fluorescence on tumor and normal tissue after spray: no washing; for signal to background ratio (tumor-to-muscle): 2 μM. The source says:
Detection of subcutaneous tumors by spraying. To evaluate the in vivo performance of the fluorogenic probes via the “spray-and-see” technique, an OVASAHO subcutaneous tumor model was used. For a facile signal co-registration, the cells were first engineered to express red fluorescence protein (RFP). Two weeks after subcutaneous inoculating of OVASAHO/RFP-Luc cells into both flanks, the tumors reached around 5 mm in size. The skin on the tumor area was removed, then the CypH-11 or Cy7 solution (2 μM in PBS) was sprayed once onto the exposed area. The whole body fluorescence images were continuously captured at various time points without washing (FIG. 14A). The tumor tissues were conveniently delineated by their intrinsic RFP fluorescence.
Tumor models of subcutaneous implants and peritoneal implants. All animal procedures were carried out in compliance with the approved animal protocols and guidelines of the Institutional Animal Care and Use Committee at Weil Cornell Medical College. Mice (female, SCID Hairless Outbred Mouse) were purchased from Charles River (Wilmington, MA). To establish the subcutaneous implants, a suspension of OVASAHO/RFP-Luc cells (5.0×10^6) or SKOV3/GFP-Luc cells (5.0×10^6) in 100 μL PBS was inoculated into each flank of the female nude mice on both sides. After two weeks, the tumor implants grew to around 5 mm in size and were used for the spray experiment. To establish the peritoneal implants, SKOV3/GFP-Luc cells (5.0×10^6) suspended in […] were injected into the abdominal cavities of the female nude mice. After two weeks, the tumor growth was examined with an in vivo bioluminescence imaging system followed by peritoneal injection of D-luciferin potassium solution (200 μL, 15 mg/mL) for 10 min. Generally, mice bearing multiple disseminated peritoneal implants of 5 mm size in diameter were used for the experiment.
In vivo fluorescence imaging of subcutaneous tumors. Two subcutaneous tumor models (OVASAHO/RFP-Luc and SKOV3/GFP-Luc) were used to compare the imaging capability of CypH-11, CypH-1, and Cy7. Mice bearing the subcutaneous implants were anesthetized in an induction chamber using 2% isoflurane, and anesthesia was maintained with 1.5-2.0% isoflurane via a nose cone. Sterile surgical tools were used to remove skin around the tumor. The mice images were captured using an IVIS SpectrumCT System from PerkinElmer (Waltham, MA). OVASAHO/RFP-Luc and SKOV3/GFP-Luc tumors were captured under an RFP channel (Excitation: 520-550 nm and Emission: 570-590 nm) and a GFP channel (Excitation: 450-480 nm and Emission: 510 530 nm), respectively. A Cy7 channel (Excitation: 730-760 nm and Emission: 790-810 nm) was applied to evaluate the fluorescence generated by CypH-11, CypH-1, and Cy7. After skin removal, the tumor area and the background fluorescence under the Cy7 channel were measured first. Solutions of CypH-11, CypH-1, and Cy7 (2 μM each) were sprayed on the surgical area, and the fluorescence of the Cy7 channel was measured continuously at each time point (1, 3, 5, 7, 10, and 15 min). Ten, five, and three OVASAHO tumors were used to evaluate CypH-11, CypH-1, and Cy7, respectively. Six SKOV3 tumors were used to evaluate CypH-11. To evaluate the tumor-to-normal tissue ratio, the whole tumor regions and the adjacent open-skin areas were drawn, and their fluorescence intensity was acquired by the IVIS software. Tumor-to-normal tissue ratio value was calculated as the average fluorescence intensity of the tumor divided by that of the normal area. Also, tumor-bearing mice were euthanized by carbon dioxide inhalation or a high dose of isoflurane (5%). The subcutaneous tumors and the adjacent muscles were then extracted, and CypH-11 (2 μM) was sprayed onto them. Images were subsequently captured under GFP/RFP/Cy7 channels.

The nature of data set [2]: pKa measurement by fluorescence intensity in the pH range 2.0-11.0 (plate reader). Type of data set: physicochemical. The conditions noted are these: for pKa: 2 μM in 20 mM phosphate-buffered solution, pH 2.0-11.0, λex=725 nm, λem=785 nm; for pH dependency of fluorescence: different pH solutions. As to the method: (A) The structure of CypH-1 (B) Schematic diagram of the fluorescence activation of CypH-11 by protonation. […] Their fluorescence intensity in the pH range (2.0-11.0) was measured (λex=725 nm and λem=785 nm) using a plate reader. (D) Fluorescence image of CypH-11 and CypH-1 in a 96-well plate at different pHs.
Spectroscopic analysis. Stock solutions (1 mM in DMSO) of CypH-11, CypH-1, and Cy7 were stored at a −30° C. freezer and used for the following experiments. For the pKa measurement, the respective compound was diluted in 20 mM phosphate-buffered solution (PBS, pH 2.0-11.0) to a final concentration of 2 μM. The fluorescence intensity (λex=725 nm and λcm=785 nm) was measured on a plate reader (Tecan Infinite M1000 Pro), and the fluorescence images were recorded with a fluorescence imaging system (Bruker In-vivo F Pro). For the quantum yield measurement, indocyanine green (ICG, Φ=1.2% in water) was used as the standard compound. The respective compound (0.4, 0.8, 1.2, 1.6, and 2.0 μM) in PBS solutions (pH=4.0 and pH=7.4) was measured using a Cary 60 UV-Vis spectrophotometer and Cary Eclipse fluorescence spectrophotometer (Agilent). The slope of fluorescence vs absorbance was compared with that of ICG to calculate the relative quantum yield.

For `CN(C)c1ccc(OC2=C(/C=C/C3=[N+](C)c4ccccc4C3(C)C)CCC/C2=C\C=C2\N(C)c3ccccc3C2(C)C)cc1.[Cl-]` [CypH-1, reference compound], in data set [1] (2 μM sprayed, all time points), the “tumor to muscle ratio over the time course” value is recorded as “around 1.0”. The “fluorescence on tumor and normal tissue after spray” value in data set [1] (2 μM sprayed) was “failed to detect the ovarian tumors by spraying; also recorded: very poor fluorescence enhancement in both the tumor and neighboring normal tissues”. In data set [2], the pKa worked out at 4.7; the “pH dependency of fluorescence” value was “low fluorescence in neutral and basic solutions, but strong fluorescence in acidic solutions”.
`CC(C)N(C)c1ccc(OC2=C(/C=C/C3=[N+](C(C)C)c4ccccc4C3(C)C)CCC/C2=C\C=C2\N(C(C)C)c3ccccc3C2(C)C)cc1.[I-]` [CypH-11]: the “time to fluorescence plateau” value in data set [1] (2 μM in PBS, sprayed once) is no more than 10 min. In addition, the “fluorescence on tumor and normal tissue after spray” value in data set [1] (2 μM sprayed) was “high fluorescence only on tumors but not on normal tissue”. The figures for the “signal to background ratio (tumor-to-muscle)” value in data set [1] (1 min after spray), in data set [1] (5 min after spray) and in data set [1] (10 min after spray) were 1.3, 1.4 and 1.5, respectively. Moreover, the pKa in data set [2] was found to be 6. Further, the “normalized fluorescence relative to that of CypH-1” value in data set [2] (at pH 6.0-6.5, in solution) is “about 3.4 fold”. For the same compound, the “pH dependency of fluorescence” value in data set [2] was “low fluorescence in neutral and basic solutions, but strong fluorescence in acidic solutions”.
